For 22 compounds, T/C results are on record in PubChem BioAssay AID192 (DTP/NCI, 2004).

The structures appear in SMILES notation. Where “and” joins values, the source holds several entries; their conditions need not be identical. Identical values can stand only once. Inconclusive results and toxic doses are left out.

The test system of this test is BDF1 mice, B16 melanoma ip, median survival T/C. The test can be described thus: NCI In Vivo Anticancer Drug Screen. Data for tumor model B16 Melanoma (intraperitoneal) in B6D2F1 (BDF1) mice. As to conditions: endpoint: median survival time, higher = longer survival. In a few lines: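 In this screen, activity was judged from survival or tumor size in treated versus vehicle-treated tumor-bearing mice, reported as T/C.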

The mark [1] stands for this setting: dose: 100.0 mg/kg/injection, schedule: Q01DX009 (ip), vehicle: saline with Tween-80.
Setting [2] is: dose: 200.0 mg/kg/injection, schedule: Q01DX009 (ip), vehicle: saline with Tween-80.
The mark [3] stands for this setting: dose: 100.0 mg/kg/injection, schedule: Q04DX003 (ip), vehicle: Klucel (hydroxypropylcellulose) (HPC).
[4] abbreviates: dose: 200.0 mg/kg/injection, schedule: Q04DX003 (ip), vehicle: Klucel (hydroxypropylcellulose) (HPC).
The mark [5] stands for this setting: dose: 12.5 mg/kg/injection, schedule: Q01DX009 (ip), vehicle: Klucel (hydroxypropylcellulose) (HPC).
Where [6] appears, read: dose: 50.0 mg/kg/injection, schedule: Q01DX009 (ip), vehicle: Klucel (hydroxypropylcellulose) (HPC).
The mark [7] stands for this setting: dose: 150.0 mg/kg/injection, schedule: Q01DX009 (ip), vehicle: saline with Tween-80.
[8] abbreviates: dose: 100.0 mg/kg/injection, schedule: Q01DX009 (ip), vehicle: Klucel (hydroxypropylcellulose) (HPC).
The mark [9] stands for this setting: dose: 200.0 mg/kg/injection, schedule: Q01DX009 (ip), vehicle: Klucel (hydroxypropylcellulose) (HPC).
Setting [10] is: dose: 400.0 mg/kg/injection, schedule: Q01DX009 (ip), vehicle: Klucel (hydroxypropylcellulose) (HPC).
Where [11] appears, read: dose: 25.0 mg/kg/injection, schedule: Q01DX009 (ip), vehicle: saline with Tween-80.
The mark [12] stands for this setting: dose: 50.0 mg/kg/injection, schedule: Q01DX009 (ip), vehicle: saline with Tween-80.
[13] abbreviates: dose: 100.0 mg/kg/injection, schedule: Q01DX009 (ip), vehicle: saline.
[14] abbreviates: dose: 25.0 mg/kg/injection, schedule: Q01DX009 (ip), vehicle: distilled water + Tween-80.

Consider `S=c1sc2ccccc2n1CN(c1ccccc1)c1ccc2ccccc2c1`, for which the T/C (dose: 25.0 mg/kg/injection, schedule: Q04DX003 (ip), vehicle: saline with Tween-80) is 109 % of control; the T/C (dose: 50.0 mg/kg/injection, schedule: Q04DX003 (ip), vehicle: saline with Tween-80) is 106 % of control; the T/C (dose: 100.0 mg/kg/injection, schedule: Q04DX003 (ip), vehicle: saline with Tween-80) is 93 % of control and 103 % of control.
Regarding `CC(=O)OC1CC(O)C23COC(O)C1(C)C2CC(O)C1(C)C3C(=O)C(O)C2(C)C(c3ccoc3)CC3OC321` (stereo unspecified), the T/C by setting is: (dose: 0.13 mg/kg/injection, schedule: Q01DX009 (ip), vehicle: saline + alcohol) 111 % of control; (dose: 0.25 mg/kg/injection, schedule: Q01DX009 (ip), vehicle: saline + alcohol) 102 % of control; (dose: 0.5 mg/kg/injection, schedule: Q01DX009 (ip), vehicle: saline + alcohol) 115 % of control; (dose: 1.0 mg/kg/injection, schedule: Q01DX009 (ip), vehicle: saline + alcohol) 98 % of control.
In the case of `Cc1cccc(/C=N\OCCc2ccccc2)n1`, the T/C is, setting by setting: under setting [1], 97 % of control; under setting [2], 93 % of control.
Turning to `O=C(Cl)C1CC2c3ccccc3C1([N+](=O)[O-])c1ccccc12` (stereo unspecified), the T/C by setting is: (dose: 50.0 mg/kg/injection, schedule: Q04DX003 (ip), vehicle: Klucel (hydroxypropylcellulose) (HPC)) 94 % of control; under setting [3], 100 % of control; under setting [4], 102 % of control.
Consider `O=[N+]([O-])c1ccc(C2OC2c2ccccc2)cc1` (stereo unspecified), for which the T/C was 100 % of control (dose: 9.38 mg/kg/injection, schedule: Q01DX009 (ip), vehicle: saline with Tween-80); 103 % of control under setting [5]; 105 % of control (dose: 18.7 mg/kg/injection, schedule: Q01DX009 (ip), vehicle: saline with Tween-80); 97 % of control (dose: 37.5 mg/kg/injection, schedule: Q01DX009 (ip), vehicle: saline with Tween-80); 100 % of control under setting [6]; 102 % of control (dose: 75.0 mg/kg/injection, schedule: Q01DX009 (ip), vehicle: saline with Tween-80). Also, the T/C under setting [7] was 97 % of control.
On to `CCOc1ccc(NC(=O)C2CCC(C)(C(=O)O)C2(C)C)cc1` (stereo unspecified), for which the T/C (dose: 66.0 mg/kg/injection, schedule: Q01DX009 (ip), vehicle: saline with Tween-80) is 88 % of control; the T/C under setting [1] is 100 % of control; the T/C under setting [7] was 113 % of control.
On to `COc1ccc(CC2C(=O)NC(C)C(=O)N(C)C3C(=O)N(C)C(Cc4ccc(O)c(c4)Oc4ccc(cc4)C3O)C(=O)NC(C)C(=O)NC(C)C(=O)N2C)cc1` (stereo unspecified) (tested in a mixture with another compound), for which the T/C (dose: 0.12 mg/kg/injection, schedule: Q01DX009 (ip), vehicle: other) was 97 % of control; the T/C (dose: 0.25 mg/kg/injection, schedule: Q01DX009 (ip), vehicle: other) is 109 % of control; the T/C (dose: 0.5 mg/kg/injection, schedule: Q01DX009 (ip), vehicle: other) was 161 % of control; the T/C (dose: 1.0 mg/kg/injection, schedule: Q01DX009 (ip), vehicle: other) is 152 % of control; the T/C (dose: 1.0 mg/kg/injection, schedule: Q01DX009 (ip), vehicle: saline with Tween-80) was 154 % of control; the T/C (dose: 2.0 mg/kg/injection, schedule: Q01DX009 (ip), vehicle: saline with Tween-80) was 157 % of control. In addition, the T/C by setting is: (dose: 250.0 micrograms/kg/injection, schedule: Q01DX009 (ip), vehicle: saline) 152 % of control; (dose: 2000.0 micrograms/kg/injection, schedule: Q01DX009 (ip), vehicle: saline) 154 % of control.
For the compound `Cc1ccc(C)c(NC(=O)NC(C)C)c1`, the T/C is 106 % of control under setting [8], 100 % of control under setting [9] and 103 % of control under setting [10].
With `Cc1ccccc1NC(=O)Nc1ccccc1F`, the T/C is, setting by setting: under setting [3], 93 % of control; under setting [4], 93 % of control; (dose: 400.0 mg/kg/injection, schedule: Q04DX003 (ip), vehicle: Klucel (hydroxypropylcellulose) (HPC)) 100 % of control.
In the case of `c1ccc2sc(SSN3CCOCC3)nc2c1`, the T/C is, setting by setting: under setting [5], 97 % of control; under setting [6], 94 % of control.
Consider `O=c1[nH]c(-c2ccccc2)c(-c2ccccc2)[nH]1`, for which the T/C reads like this: under setting [1], 90 % of control; under setting [2], 95 % of control.
Take `CCCCCCCCC(O)CCCC` (stereo unspecified): the T/C runs as follows: under setting [8], 103 % of control; under setting [9], 95 % of control; under setting [10], 103 % of control.
With `CCO/C=C1\SC(=S)N(c2ccccc2C)C1=O`, the T/C was 92 % of control under setting [11], 90 % of control under setting [12] and 91 % of control under setting [1].
In the case of `COC(COC(N)=O)C1=C(N2CC2)C(=O)C(C)=C(N2CC2)C1=O` (stereo unspecified), the T/C is, setting by setting: (dose: 0.03 mg/kg/injection, schedule: Q01DX009 (ip), vehicle: saline) 93 % of control and 107 % of control and 122 % of control; (dose: 0.06 mg/kg/injection, schedule: Q01DX009 (ip), vehicle: saline) 101 % of control and 114 % of control; (dose: 0.12 mg/kg/injection, schedule: Q01DX009 (ip), vehicle: saline) 123 % of control; (dose: 0.25 mg/kg/injection, schedule: Q01DX009 (ip), vehicle: saline) 163 % of control; (dose: 0.5 mg/kg/injection, schedule: Q01DX009 (ip), vehicle: saline) 179 % of control and 196 % of control.
As for `CC(N)Cc1ccccc1` (stereo unspecified), the T/C was 105 % of control (dose: 3.12 mg/kg/injection, schedule: Q01DX009 (ip), vehicle: saline); 100 % of control (dose: 6.25 mg/kg/injection, schedule: Q01DX009 (ip), vehicle: saline); 105 % of control (dose: 12.5 mg/kg/injection, schedule: Q01DX009 (ip), vehicle: saline); 97 % of control (dose: 25.0 mg/kg/injection, schedule: Q01DX009 (ip), vehicle: saline); 97 % of control (dose: 50.0 mg/kg/injection, schedule: Q01DX009 (ip), vehicle: saline); 95 % of control under setting [13].
Regarding `ClC1(c2ccccc2)c2ccc(Br)cc2-c2cc(Br)ccc21`, the T/C by setting is: under setting [1], 89 % of control; under setting [2], 92 % of control.
For the compound `COC(=O)N1C=Cc2ccccc2C1C#N` (stereo unspecified), the T/C was 95 % of control under setting [12] and 87 % of control under setting [1].
Turning to `Oc1cc2c3c(c1)c1cc4c(cc1c[n+]3CC2)OCO4`, the T/C runs as follows: (dose: 1.56 mg/kg/injection, schedule: Q01DX009 (ip), vehicle: distilled water + Tween-80) 117 % of control; (dose: 3.12 mg/kg/injection, schedule: Q01DX009 (ip), vehicle: water) 115 % of control; (dose: 3.13 mg/kg/injection, schedule: Q01DX009 (ip), vehicle: distilled water + Tween-80) 113 % of control; (dose: 6.25 mg/kg/injection, schedule: Q01DX009 (ip), vehicle: water) 118 % of control; under setting [14], 119 % of control; (dose: 50.0 mg/kg/injection, schedule: Q01DX009 (ip), vehicle: water) 124 % of control.
Regarding `CCC(C)OC(N)=O` (stereo unspecified), the T/C under setting [13] is 123 % of control.
`COc1ccccc1NC(=O)Nc1cccc(Cl)c1`: the T/C was 105 % of control (dose: 6.25 mg/kg/injection, schedule: Q01DX009 (ip), vehicle: saline with Tween-80); 97 % of control (dose: 12.5 mg/kg/injection, schedule: Q01DX009 (ip), vehicle: saline with Tween-80); 100 % of control under setting [11].
As for `CCOC(=O)c1ccc(NC(=O)Nc2nc(C)cs2)cc1`, the T/C under setting [14] was 111 % of control and the T/C (dose: 200.0 mg/kg/injection, schedule: Q01DX009 (ip), vehicle: distilled water + Tween-80) is 120 % of control.
Regarding `O=C(/C(=C\c1ccccc1)CBr)c1ccccc1`, the T/C is, setting by setting: (dose: 0.12 mg/kg/injection, schedule: Q01DX009 (ip), vehicle: Klucel (hydroxypropylcellulose) (HPC)) 101 % of control; (dose: 0.25 mg/kg/injection, schedule: Q01DX009 (ip), vehicle: Klucel (hydroxypropylcellulose) (HPC)) 88 % of control; (dose: 0.5 mg/kg/injection, schedule: Q01DX009 (ip), vehicle: Klucel (hydroxypropylcellulose) (HPC)) 88 % of control.
